Results reported in paper PMC7178819, “6,7-Dimethoxy-2-phenethyl-1,2,3,4-tetrahydroisoquinoline amides and corresponding ester isosteres as multidrug resistance reversers” (Journal of Enzyme Inhibition and Medicinal Chemistry, 2020).

Assays:
P-gp [1] = biological target: T1, P-gp (Homo sapiens, UniProt P08183); assay: ATP cell depletion (ATPlite assay) in MDCK-MDR1 cells; format: cell-based; details: Yes/No
T1 construct: expressed in transfected cells; host or cells: MDCK-MDR1 (Madin-Darby Canine Kidney cells, gift of Prof. P. Borst, NKI-AVL)
Protocol: The MDCK-MDR1 cells were seeded into 96-well microplate in 100 µL of complete medium at a density 20,000 cells per well. The plate was incubated overnight (O/N) in a humidified atmosphere 5% CO2 at 37 °C. The medium was removed and 100 µL of complete medium either alone or containing different concentrations (ranging from 1 to 100 µM) of test compounds was added. The plate was incubated for 2 h in a humidified 5% CO2 atmosphere at 37 °C. 50 µL of mammalian cell lysis solution was added to all wells and the plate shacked for five minutes in an orbital shaker. 50 µL of substrate solution was added to all wells and the plate shacked for five minutes in an orbital shaker. The plate was dark adapted for ten minutes and the luminescence was measured.
(§1) The interaction potency between the designed compounds and P-gp was evaluated by measuring the transport inhibition of the pro-fluorescent probe Calcein-AM, that is a P-gp substrate, in a cell line overexpressing P-gp (MDCK-MDR1)[47]. The P-gp interacting profile was further investigated with two other assays: the Apparent Permeability (Papp) determination (BA/AB) in Caco-2 cell monolayer[48]^,[49], and the ATP cell depletion in the MDCK-MDR1 cell line[50]. Taking into account the results of the combined tests, an interacting compound can be classified as substrate or inhibitor. Papp determination measures the ratio between two fluxes: from the basolateral to apical compartments (BA, representative of passive diffusion) and from the apical to basolateral compartments (AB, representative of active transport). […] In the same manner, if (BA/AB) >2, the compound should probably be classified as a substrate. […] The selectivity of ligands 1–26 was evaluated by detecting their activity towards the other ABC transporters MRP1 and BCRP, by measuring the inhibition of the efflux of Calcein-AM (i.e., also a MRP1 substrate) in cells overexpressing MRP1 (MDCK-MRP1 cells), and the inhibition of the efflux of the fluorescent probe Hoechst 33342 (i.e. a BCRP substrate) in cells overexpressing BCRP (MDCK-BCRP cells), respectively.

[2] = Stability test in human plasma (LC-MS/MS); format: in vitro ADME; details: 1 µM, 37 °C
Protocol: (§2) Each sample was prepared adding 10 µL of working solution 1 to 100 µL of tested matrix (PBS or human plasma) in micro centrifuge tubes. The obtained solutions correspond to 1 µM of analyte.
After the incubation, the samples were added with 300 µL of ISTD solution and centrifuged (room temperature for 5 min at 10,000 rpm). The supernatants were transferred in auto sampler vials and dried under a gentle stream of nitrogen.
(§3) The dried samples were dissolved in 1.0 ml of 10 mM of formic acid in mQ water: acetonitrile 80:20 solution. The obtained sample solutions were analysed by LC-MS/MS methods described in Supplementary material.
(§4) For this purpose, a series of experiments were carried out, adding a known amount of analyte in both phosphate buffer solution (PBS) and in human plasma. The samples were analysed by LC-MS/MS method operating in Multiple Reaction Monitoring (MRM) mode[55].
The analyte concentration (1 µM) used during the stability tests is generally smaller than the corresponding Michaelis–Menten constant (KM); therefore, the enzymatic degradation rate is described by a first-order kinetic. Then, by plotting the natural logarithm of the quantitative data versus the incubation time, a linear function can be used and its slope represents the degradation rate (k).

[3] = Stability test in phosphate buffer solution (PBS); format: physicochemical; details: 1 µM, 37 °C, up to 120 min
Protocol: as §2
Each set of samples was incubated in triplicate at four different times, 0, 30, 60 and 120 min at 37 °C. Therefore, the degradation profile of each analyte was represented by a batch of 12 samples (4 incubation times × 3 replicates). After the incubation, the samples were added with 300 µL of ISTD solution and centrifuged (room temperature for 5 min at 10,000 rpm). The supernatants were transferred in auto sampler vials and dried under a gentle stream of nitrogen.
as §3
as §4, with “Due to the presence of ester or amide groups in the structure of compounds 1–26, a study aimed to evaluate their susceptibility to spontaneous or enzymatic hydrolysis, was planned. For” for “For”, “mode[55]. […]” for “mode[55].”

P-gp [4] = biological target: T1, P-gp; assay: Inhibition of Calcein-AM transport in MDCK-MDR1 cells; format: cell-based; details: Calcein-AM, MDCK-MDR1 cells; mean ± SEM of two experiments
Protocol: These experiments were carried out as previously described by Teodori et al. with minor modifications. Each cell line (30 000 cells per well) was seeded into black CulturePlate 96/wells plate with 100 µL medium and allowed to become confluent overnight. 100 µL of test compounds were solubilised in culture medium and added to monolayers, with final concentrations ranging from 1 nM to 100 µM. 96/Wells plate was incubated for 30 min in a humidified atmosphere 5% CO2 at 37 °C. Calcein-AM was added in 100 µL of Phosphate Buffered Saline (PBS) to yield a final concentration of 2.5 µM and plate was incubated for 30 min in a humidified atmosphere 5% CO2 at 37 °C. Each well was washed 3 times with ice cold PBS. Saline buffer was added to each well and the plate was read with Victor3 (PerkinElmer) at excitation and emission wavelengths of 485 and 535 nm, respectively. In these experimental conditions, Calcein cell accumulation in the absence and in the presence of tested compounds was evaluated and fluorescence basal level was estimated with untreated cells. In treated wells the increase of fluorescence with respect to basal level was measured. EC50 values were determined by fitting the fluorescence increase percentage versus log[dose].
The interaction potency between the designed compounds and P-gp was evaluated by measuring the transport inhibition of the pro-fluorescent probe Calcein-AM, that is a P-gp substrate, in a cell line overexpressing P-gp (MDCK-MDR1)[47]. The P-gp interacting profile was further investigated with two other assays: the Apparent Permeability (Papp) determination (BA/AB) in Caco-2 cell monolayer[48]^,[49], and the ATP cell depletion in the MDCK-MDR1 cell line[50]. […] Papp determination measures the ratio between two fluxes: from the basolateral to apical compartments (BA, representative of passive diffusion) and from the apical to basolateral compartments (AB, representative of active transport). […] In the same manner, if (BA/AB) >2, the compound should probably be classified as a substrate.

[5] = Apparent permeability (Papp) determination (BA/AB) in Caco-2 cell monolayer; format: in vitro ADME; details: human, Caco-2 monolayer
Protocol: Caco-2 cells were seeded onto a Millicell® assay system (Millipore), where a cell monolayer is set in between a filter cell and a receiver plate, at a density of 10 000 cells/well[46]. The culture medium was replaced every 48 h and the cells kept for 21 days in culture. The Trans Epithelial Electrical Resistance (TEER) of the monolayers was measured daily, before and after the experiment, using an epithelial volt-ohmmeter (Millicell®-ERS). Generally, TEER values greater than 1000 Ω for a 21 days culture, are considered optimal.
After 21 days of Caco-2 cell growth, the medium was removed from filter wells and from the receiver plate, which were filled with fresh HBSS buffer (Invitrogen). This procedure was repeated twice, and the plates were incubated at 37 °C for 30 min. After incubation time, the HBSS buffer was removed and drug solutions and reference compounds were added to the filter well at the concentration of 100 µM, while fresh HBSS was added to the receiver plate. The plates were incubated at 37 °C for 120 min. Afterwards, samples were removed from the apical (filter well) and basolateral (receiver plate) side of the monolayer to measure the permeability.
as §1

T1 sequence (P08183 whole entry): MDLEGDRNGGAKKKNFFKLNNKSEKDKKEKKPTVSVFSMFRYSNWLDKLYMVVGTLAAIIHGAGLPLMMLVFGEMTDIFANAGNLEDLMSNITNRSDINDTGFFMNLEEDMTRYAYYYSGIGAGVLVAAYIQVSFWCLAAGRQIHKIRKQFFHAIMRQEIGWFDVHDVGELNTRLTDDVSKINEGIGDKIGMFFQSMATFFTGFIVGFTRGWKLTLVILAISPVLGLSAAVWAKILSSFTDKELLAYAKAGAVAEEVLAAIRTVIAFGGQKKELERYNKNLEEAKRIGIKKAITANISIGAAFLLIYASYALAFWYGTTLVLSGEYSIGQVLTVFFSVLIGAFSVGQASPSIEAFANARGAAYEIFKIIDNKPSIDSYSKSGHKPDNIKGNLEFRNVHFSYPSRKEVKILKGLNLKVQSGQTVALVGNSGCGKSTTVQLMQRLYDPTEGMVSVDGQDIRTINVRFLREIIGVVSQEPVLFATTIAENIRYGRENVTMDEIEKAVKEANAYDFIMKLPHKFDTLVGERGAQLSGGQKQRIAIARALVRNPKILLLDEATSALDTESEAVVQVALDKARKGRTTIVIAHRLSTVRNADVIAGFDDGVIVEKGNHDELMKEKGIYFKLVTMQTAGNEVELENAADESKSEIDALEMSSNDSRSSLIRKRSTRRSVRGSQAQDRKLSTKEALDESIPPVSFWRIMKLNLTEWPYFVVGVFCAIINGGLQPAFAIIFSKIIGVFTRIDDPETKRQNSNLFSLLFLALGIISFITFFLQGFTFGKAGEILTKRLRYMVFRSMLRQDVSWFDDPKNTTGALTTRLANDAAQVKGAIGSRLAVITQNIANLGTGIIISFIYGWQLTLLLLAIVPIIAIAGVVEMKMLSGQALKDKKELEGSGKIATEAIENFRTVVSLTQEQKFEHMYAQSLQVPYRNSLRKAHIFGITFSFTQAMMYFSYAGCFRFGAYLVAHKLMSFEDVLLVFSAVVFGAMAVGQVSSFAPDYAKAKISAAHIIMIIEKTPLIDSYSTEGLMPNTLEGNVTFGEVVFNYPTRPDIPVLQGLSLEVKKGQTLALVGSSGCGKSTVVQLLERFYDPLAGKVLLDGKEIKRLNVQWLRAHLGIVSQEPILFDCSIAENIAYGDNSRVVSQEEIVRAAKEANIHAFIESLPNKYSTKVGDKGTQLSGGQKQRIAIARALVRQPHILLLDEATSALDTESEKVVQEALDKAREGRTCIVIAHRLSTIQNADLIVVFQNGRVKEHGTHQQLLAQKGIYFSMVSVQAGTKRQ

- ATP cell depletion (P-gp [1]): No
- stability in human plasma ([2]; up to 120 min): stable over 120 min
- half-life at 1 µM ([2]; human, human plasma): ≥ 4 h
- stability in PBS [3]: unmodified
- EC50 (P-gp [4]): 0.87 ± 0.17 µM
- efflux ratio at 120 min, 100 µM [5]: 6
SMILES: COc1cncc(C(=O)Nc2ccc(CCN3CCc4cc(OC)c(OC)cc4C3)cc2)n1 [Compound 12, N-(4–(2-(6,7-dimethoxy-3,4-dihydroisoquinolin-2(1H)-yl)ethyl)phenyl)-6-methoxypyrazine-2-carboxamide]
